Each structure is given as a SMILES string.

This series can be described thus: in vitro. The following applies: human, hela cells, % viability.
What is called viability is a read-out of living cells in per cent, often relative to untreated cells. Regarding `N=C(Nc1nc(=O)cc(CSc2ccc(Cl)cc2)[nH]1)Nc1cccc2ccccc12` [CBK266504], the viability at 28.5 h, 10 µM is 98.9%.
For `O=C(C1=C(O)C(=O)N(CCN2CCOCC2)C1c1ccccn1)c1cccs1` (stereo not drawn) [CBK266508], the viability at 28.5 h, 10 µM is 99.3%.
In the case of `Cc1cc(C)nc(N(C#N)CC(=O)N2c3ccccc3CCc3ccccc32)n1` [CBK266509], the viability at 28.5 h, 10 µM was 112%.
The same measure for `Cc1nc(-c2ccccc2)sc1C(=O)C1=C(O)C(=O)N(CCN2CCOCC2)C1c1ccccc1F` (stereo not drawn) [CBK266511]: 103%; for `O=C(c1ccccc1)c1ccc(OCC(O)CN2CCN(c3ccccn3)CC2)cc1` (stereo not drawn) [CBK266513]: 98.3%.
The same measure for `COc1ccc(N2C(=O)C(CC(=O)Nc3ccc(F)cc3)N(Cc3ccc4c(c3)OCO4)C2=O)cc1` (stereo not drawn) [CBK266515]: 97%; for `Cc1nc(-c2ccccc2)sc1C(=O)C1=C(O)C(=O)N(CCN2CCOCC2)C1c1cccs1` (stereo not drawn) [CBK266520]: 102%.
With `CCC(C)NS(=O)(=O)c1ccc(OCC(=O)O)cc1` (stereo not drawn) [CBK266521], the viability at 28.5 h, 10 µM was 120%.
Take `Cn1nnc2cc(C(=O)N(CCO)c3ccccc3)ccc21` [CBK266522]: the viability at 28.5 h, 10 µM was 95.5%.
In the case of `Cc1cc(Cl)c(S(=O)(=O)Nc2cccnc2)cc1OCC(N)=O` [CBK266523] it was 104%.
On to `CC(Oc1ccccc1)C(=O)Nc1c[nH]c(=O)[nH]c1=O` (stereo not drawn) [CBK266524], for which the viability at 28.5 h, 10 µM amounted to 72.3%.
The same measure for `O=C(CSc1nnc2sc3ccccc3n12)N1N=CCC1c1ccccc1` (stereo not drawn) [CBK266527]: 87.1%.
In the case of `Cc1cccc(Oc2nc3c(C)cccn3c(=O)c2/C=C(\C#N)c2nc3ccccc3[nH]2)c1` [CBK266528] it was 104%; in that of `COc1ccc(C(=O)C2=C(O)C(=O)N(CCCN(C)C)C2c2ccncc2)cc1Cl` (stereo not drawn) [CBK266529], 109%; in that of `COCc1c(Br)c(C)nc(OCC(=O)O)c1C#N` [CBK266532], 96.9%.
In the case of `Cc1cccc(NC(=O)COc2ccccc2CNc2ccc(Br)cc2)c1` [CBK266534] it was 101%.
`Cc1cc(Cl)c(S(=O)(=O)Nc2cccc(Br)c2)cc1OCC(N)=O` [CBK266535]: the viability at 28.5 h, 10 µM was 100%.
`Cc1ccc(C(=O)C2=C(O)C(=O)N(CCN(C)C)C2c2ccccn2)o1` (stereo not drawn) [CBK266536]: the viability at 28.5 h, 10 µM turned out to be 119%.
In the case of `COc1ccc(C(C)C)cc1S(=O)(=O)NCCN1CCOCC1` [CBK266538] it was 112%; in that of `Cc1c(C(=O)C2=C(O)C(=O)N(Cc3cccnc3)C2c2ccc(F)cc2)cnn1-c1ccccc1` (stereo not drawn) [CBK266541], 105%; in that of `Cc1ccc(S(=O)(=O)NC(C)C(=O)Nc2cc(C(F)(F)F)ccc2Cl)cc1` (stereo not drawn) [CBK266546], 109%.
The same measure for `Cc1nnc(SCc2cc(=O)nc(Nc3nc(C)c4ccccc4n3)[nH]2)s1` [CBK266549]: 103%; for `O=C(Nc1ccc(S(=O)(=O)N2CCOCC2)cc1)c1ccc(CN2CCc3ccccc3C2)cc1` [CBK266550]: 96.2%.
The same measure for `COc1cccc(CNC(C)(C)CO)c1OCc1ccc(Cl)cc1` [CBK266552C]: 102%.
As to `Cc1cc(Cl)c(S(=O)(=O)N2CCN(c3ccccn3)CC2)cc1OCC(N)=O` [CBK266553], the viability at 28.5 h, 10 µM came to 117%.
With `Nc1nc(SCC(=O)c2ccc3c(c2)OCCO3)n[nH]1` [CBK266554], the viability at 28.5 h, 10 µM was found to be 107%.
In the case of `COc1ccc(F)cc1S(=O)(=O)N1CCCN(S(=O)(=O)c2cc(F)ccc2OC)CC1` [CBK266555] it was 93.5%; in that of `CC(C)(C)c1cc(CN2CCCCC2)c(C(=O)O)o1` [CBK266556C], 97.8%; in that of `O=C(NCC1(c2ccccc2)CCCC1)c1ccc(NC(=O)C2COc3ccccc3O2)cc1` (stereo not drawn) [CBK266558], 97.9%.
In the case of `COc1cc(S(=O)(=O)NC2CC(C)(C)NC(C)(C)C2)ccc1F` [CBK266561], the viability at 28.5 h, 10 µM came to 92%.
Take `Cc1ccc(S(=O)(=O)N2CCN(CC(O)COc3ccc4ccccc4c3Cl)CC2)c(C)c1` (stereo not drawn) [CBK266563]: the viability at 28.5 h, 10 µM stood at 83%.
Turning to `COc1ccc(N2CCN(/C(=N\S(=O)(=O)c3ccc(C)cc3)Nc3nc(C)cc(C)n3)CC2)cc1` [CBK266564], the viability at 28.5 h, 10 µM turned out to be 99.9%.
The same measure for `O=[N+]([O-])c1cc(C(F)(F)F)ccc1NCCCNc1nc(N2CCOCC2)nc2ccccc12` [CBK266567]: 112%; for `O=C(CCSc1ccccc1)Nc1ccc(S(=O)(=O)N2CCOCC2)cc1` [CBK266568]: 114%.
In the case of `Clc1cccc(Cl)c1CN(Cc1ccccc1)c1ncnc2[nH]cnc12` [CBK266571] it was 95.2%; in that of `Nc1nc(SCC(=O)NCc2ccco2)n[nH]1` [CBK266572], 94%; in that of `COc1ccc(N(CC(=O)NC2CC3CCC2C3)S(=O)(=O)c2ccc(C)cc2)cc1` (stereo not drawn) [CBK266574], 108%.
Turning to `COc1cc(CNn2c(C)nnc2S)cc(Br)c1OCC(=O)NC(C)(C)C` [CBK266575], the viability at 28.5 h, 10 µM was 112%.
With `O=C(CSc1nnc2scc(-c3ccccc3)n12)Nc1nsc(-c2ccc(Cl)cc2)n1` [CBK266576], the viability at 28.5 h, 10 µM worked out at 95.4%.
As for `CC12CCC(C(=O)O)(c3nc4cc([N+](=O)[O-])ccc4nc31)C2(C)C` (stereo not drawn) [CBK266577K], the viability at 28.5 h, 10 µM amounted to 95.6%.
In the case of `NS(=O)(=O)c1ccc(CCNC2CC(=O)N(Cc3cccs3)C2=O)cc1` (stereo not drawn) [CBK266579] it was 91.1%.
In the case of `Nc1nc(SCC(=O)NCc2ccc3c(c2)OCO3)n[nH]1` [CBK266580] it was 101%.
Turning to `COc1ccc2[nH]c(C(=O)O)c(CCC(=O)O)c2c1` [CBK266582], the viability at 28.5 h, 10 µM worked out at 98.1%.
As for `CCN(CC)CCN1C(=O)C(O)=C(C(=O)c2ccc(C)o2)C1c1ccccn1` (stereo not drawn) [CBK266584], the viability at 28.5 h, 10 µM came out at 109%.
Turning to `Cc1cc(Cl)c(S(=O)(=O)NCc2ccccc2)cc1OCC(N)=O` [CBK266588], the viability at 28.5 h, 10 µM worked out at 104%.
The same measure for `Cc1cc(Cl)c(S(=O)(=O)Nc2ccon2)cc1OCC(N)=O` [CBK266589]: 99.6%.
In the case of `CCNc1nc(NCc2ccccc2)nc(Oc2ccc(=O)[nH]n2)n1` [CBK266591] it was 104%; in that of `COc1ccccc1C1C(C(=O)c2sc(C)nc2C)=C(O)C(=O)N1CCCN1CCOCC1` (stereo not drawn) [CBK266592], 113%; in that of `Cc1nc(-c2ccccc2)sc1C(=O)C1=C(O)C(=O)N(CCN(C)C)C1c1ccc(Cl)cc1` (stereo not drawn) [CBK266595], 110%.
In the case of `COc1cc(NC(=O)CC2NC3CCCCC3NC2=O)cc(OC)c1` (stereo not drawn) [CBK266597] it was 99.1%.
For the molecule `Cc1nc(-c2ccccc2)sc1C(=O)C1=C(O)C(=O)N(CCCN2CCOCC2)C1c1cccs1` (stereo not drawn) [CBK266601], the viability at 28.5 h, 10 µM came to 91.4%.
In the case of `COc1ccc(-c2nnc3c4ccccc4c(C)nn23)cc1S(=O)(=O)NC(C)c1ccccc1` (stereo not drawn) [CBK266605] it was 104%; in that of `Cc1cc(C)cc(NC(=O)c2ccc(CSc3nnc(N)s3)cc2)c1` [CBK266609], 85.5%; in that of `CCn1c(COc2ccc(Cl)c3cccnc23)nnc1SC` [CBK266611], 85.9%.
The same measure for `CCN1CCN(C(=O)CN(Cc2ccc(F)cc2)S(=O)(=O)c2ccccc2)CC1` [CBK266612]: 96.8%.
`Cc1ccc(S(=O)(=O)NCC(C)O)cc1-c1nnc2c3ccccc3c(C)nn12` (stereo not drawn) [CBK266614]: the viability at 28.5 h, 10 µM is 106%.
With `NS(=O)(=O)c1ccc(NC2=NC(=O)C(CC(=O)Nc3ccc(Br)cc3)S2)cc1` (stereo not drawn) [CBK266616], the viability at 28.5 h, 10 µM came to 117%.
`Nn1c(=O)c2ccccc2n2c(SCC(=O)N(c3ccccc3)c3ccccc3)nnc12` [CBK266621]: the viability at 28.5 h, 10 µM was 99.3%.
For `Cn1c(SCC(=O)NC(c2ccccc2)c2ccccc2)nnc1-c1ccncc1` [CBK266622], the viability at 28.5 h, 10 µM came out at 97.8%.
On to `N#CC1=C(N)Oc2[nH]nc(-c3ccc4ccccc4c3)c2C1c1cn(CC(N)=O)nc1-c1ccccc1` (stereo not drawn) [CBK266624], for which the viability at 28.5 h, 10 µM was 107%.
The same measure for `N#C/C(=C/c1ccc(OCc2cccc(C(=O)O)c2)cc1)c1ccc([N+](=O)[O-])cc1` [CBK266626]: 89.6%; for `CCN1CCN(Cc2c(O)ccc3c(=O)c(Oc4ccccc4Cl)c(C(F)(F)F)oc23)CC1` [CBK266627]: 107%; for `CCN1CCN(c2ccc(NC(=O)c3cccnc3)cc2Cl)CC1` [CBK266629C]: 97.9%.
The same measure for `O=c1n(-c2ccccc2)c(=O)n(Cc2ccccn2)n1Cc1ccccn1` [CBK266630]: 98.7%.
In the case of `N#Cc1ccccc1CSc1nnc(Cc2cccc3ccccc23)n1-c1ccccc1` [CBK266633], the viability at 28.5 h, 10 µM amounted to 89.7%.
The same measure for `COc1ccccc1Nc1nc(N)nc(CN2CCc3ccccc3C2)n1` [CBK266635]: 95.1%; for `Cc1ccc(S(=O)(=O)N2CCC(C(=O)O)CC2)cc1C(=O)O` [CBK266636]: 99.6%.
Turning to `O=C(CSc1nnc(-c2ccccc2)n1-c1ccc(Cl)cc1)NCc1ccco1` [CBK266637], the viability at 28.5 h, 10 µM is 99.2%.
On to `Cc1cc(=O)oc2ccc(OCC(=O)N(Cc3ccc(F)cc3)Cc3ccco3)cc12` [CBK266639], for which the viability at 28.5 h, 10 µM came out at 103%.
In the case of `COc1ccc(-c2nnc3c4ccccc4c(C)nn23)cc1S(=O)(=O)N1CCCCC1` [CBK266640] it was 110%; in that of `COc1cc(/C=C2/C(=O)N(c3nnn[nH]3)N=C2C)ccc1OC(=O)c1cccs1` [CBK266641], 112%; in that of `COc1ccccc1C1=NN(C(=O)CCCC(=O)O)C(c2ccco2)C1` (stereo not drawn) [CBK266642], 91.8%.
In the case of `Cc1ccc2nc(-c3ccc(N4C(Nc5nc(C)cc(C)n5)=NC(=O)CC4C(=O)O)cc3)sc2c1` (stereo not drawn) [CBK266646] it was 104%; in that of `CCOc1ccccc1NC(=O)C(C)Oc1ccc(OC)cc1` (stereo not drawn) [CBK266648], 39.6%.
For `O=C(O)CCC(=O)N1N=C(c2ccccc2)CC1c1ccc2nccnc2c1` (stereo not drawn) [CBK266650], the viability at 28.5 h, 10 µM was determined as 86.1%.

For the origin of these results see publication PMC12040169 (PLOS Biology, 2025).
